Experimental data published in patent US20230082929A1, “METHODS OF GENERATING AND USING SENESCENT-INDUCED CELLS FOR TREATMENT OF CANCER AND COMPOSITIONS RELATING THERETO” (The Wistar Institute of Anatomy and Biology, priority 2020, published 2023).

Columns and labels:
STING = STING dimerization by immunoblot in IMR90 cells; type: cell-based, human; conditions: senescent IMR90 cells with HMGB2 knockdown
Description: Cells were lysed in 1× sample buffer (2% SDS, 10% glycerol, 0.01% bromophenol blue, 62.5 mM Tris, pH 6.8, and 0.1 M DTT) and heated to 95° C. for 10 min. Protein concentrations were determined using the protein assay dye (Bio-Rad. Cat. No: #5000006) and Nanodrop. An equal amount of total protein was resolved using SDS-PAGE gels and transferred to PVDF membranes at 110 V for 2 hours at 4° C. Membranes were blocked with 5% nonfat milk in TBS containing 0.1% Tween 20 (TBS-T) for 1 hour at room temperature. Membranes were incubated overnight at 4° C. in the primary antibodies in 4% BSA/TBS+0.025% sodium azide. Membranes were washed four times in TBS-T for 5 min at room temperature, after which they were incubated with HRP-conjugated secondary antibodies (Cell Signaling Technology. Cat. No: 7076S, 7074S) for 1 hour at room temperature. After washing four times in TBS-T for 5 min at room temperature, proteins were visualized on film after incubation with SuperSignal West Pico PLUS Chemiluminescent Substrate (Thermo Fisher Scientific. Cat. No: 34580).

2′3′-cGAMP = 2′3′-cGAMP ELISA in IMR90 cells; type: cell-based, human; conditions: senescent IMR90 cells with HMGB2 knockdown
Description: 2′ 3′-cGAMP ELISA Kit (Cayman chemical. Cat. No:501700) was used to analyze the endogenous level of 2′ 3′-cGAMP following the manufacturer's instructions. 1×10^5 IMR90 cells were incubated in 200 μL lysis buffer (ThermoFisher, Cat. No: 78501) on ice for 30 minutes. The 2′ 3′-cGAMP ELISA was performed following the manufacturer's instructions.

SASP factors = assay: Secreted cytokine antibody array, IMR90 cells; type: cell-based, human; conditions: HMGB2 knockdown senescent IMR90 cells
Description: For cytokine-array analysis, cells were washed once and cultured in serum-free medium for 48 hours (Nacarelli et al., 2019). Conditioned medium was filtered (0.2 μm) and then subjected to cytokine-array assay using Human Cytokine Array C1 kit (RayBiotech. Cat. No: AAH-CYT-1-2) following the manufacturer's guidelines. After collection of conditional media, the cell number of each sample was counted. The intensities of array dots were visualized on film after incubation with SuperSignal West Pico PLUS Chemiluminescent Substrate (Thermo Fisher Scientific. Cat. No: 34580). The integrated density was measured using Image J and normalized to the cell number from which the conditioned medium was generated.

TOP1cc = target: T1, TOP1cc (Homo sapiens, UniProt P11387); assay: Slot blot analysis of TOP1cc levels in purified CCF of senescent cells; type: cell-based; parameters: endogenous in cells; host or cells: IMR90 human fibroblasts (senescent or proliferating, with or without shHMGB2); OVCAR3 (with or without HMGB2 knockout); conditions: CCF isolated from HMGB2 knockdown or knockout senescent cells (IMR90, OVCAR3)
T1 sequence (P11387 1-765): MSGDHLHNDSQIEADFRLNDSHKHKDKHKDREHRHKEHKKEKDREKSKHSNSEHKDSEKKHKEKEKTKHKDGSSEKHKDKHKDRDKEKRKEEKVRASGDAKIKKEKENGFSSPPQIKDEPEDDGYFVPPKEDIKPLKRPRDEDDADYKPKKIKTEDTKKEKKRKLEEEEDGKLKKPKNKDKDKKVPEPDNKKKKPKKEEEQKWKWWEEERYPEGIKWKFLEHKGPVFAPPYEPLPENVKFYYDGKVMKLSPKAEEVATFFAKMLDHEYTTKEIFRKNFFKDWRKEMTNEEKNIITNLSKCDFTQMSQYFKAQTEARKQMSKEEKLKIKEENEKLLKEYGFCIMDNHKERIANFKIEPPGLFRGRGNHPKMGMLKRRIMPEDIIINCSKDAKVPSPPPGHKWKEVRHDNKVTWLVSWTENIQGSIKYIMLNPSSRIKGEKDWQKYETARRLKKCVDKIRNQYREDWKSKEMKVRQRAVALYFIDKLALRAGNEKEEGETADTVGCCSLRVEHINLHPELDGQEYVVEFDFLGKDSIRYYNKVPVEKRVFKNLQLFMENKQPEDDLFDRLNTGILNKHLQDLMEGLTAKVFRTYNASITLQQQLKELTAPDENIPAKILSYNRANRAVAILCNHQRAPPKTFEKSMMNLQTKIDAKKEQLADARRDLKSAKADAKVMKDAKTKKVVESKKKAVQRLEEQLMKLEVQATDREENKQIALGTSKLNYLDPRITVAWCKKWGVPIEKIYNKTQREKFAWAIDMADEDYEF
Description: A CCF purification protocol was developed by modifying previous protocols (Shimizu et al., 1996; Ly et al., 2017). Briefly, 500 million senescent cells were collected, resuspended, and incubated in DMEM containing 10 μg/mL cytochalasin B for 30 minutes at 37° C. After wash once with ice-cold PBS, the cell pellet was gently dounce homogenized in ice-cold pre-chilled lysis buffer (10 mM Tris-HCl, 2 mM magnesium acetate, 3 mM CaCl2), 0.32 M sucrose, 0.1 mM EDTA, 1 mM DTT, 0.1% NP-40, 0.15 mM spermine, 0.75 mM spermidine, 10 μg/ml cytochalasin B, pH 8.5, 4° C.) with ten slow strokes of a loose-fitting pestle. Release of nuclei was confirmed by DAPI-staining and microscopy. The homogenate was fixed with 1% formaldehyde for 10 minutes, and mixed well with an equal volume of 1.6M sucrose buffer (10 mM Tris-HCl, 5 mM magnesium acetate, 0.1 mM EDTA, 1 mM DTT, 0.3% BSA, 0.15 mM spermine, 0.75 mM spermidine, pH 8.0, 4° C.). A 10 mL portion of homogenate was layered on the top of sucrose buffer gradient (20 mL and 15 mL containing 1.8M and 1.6M of sucrose, respectively) in a 50 mL tissue culture tube. The tubes were centrifuged at 1200×g for 20 minutes at 4° C. After centrifugation, the upper 3 mL of the gradient was discarded, and the next 15 mL containing CCFs was collected. […] DNA concentration was measured using Nanodrop and 5 μg DNA was used for slot blot analysis.

CC[C@@]1(O)C(=O)OCc2c1cc1n(c2=O)Cc2cc3ccccc3nc2-1 [CPT, Camptothecin]
STING dimerization (STING): rescued the suppression of STING dimerization | 2′3′-cGAMP levels (2′3′-cGAMP): rescued | secretion of SASP factors (antibody array) (SASP factors): restoration of the secretion of SASP factors | TOP1cc levels in CCF (TOP1cc): restored the TOP1cc levels | TOP1cc levels in CCF (TOP1cc; listed as Camptothecin): Rescue of the decrease in TOP1cc levels
